{"source": "paper PMC6199744", "about": "“Development of Chemical Proteomics for the Folateome and Analysis of the Kinetoplastid Folateome” (ACS Infectious Diseases, 2018)", "type_in_all_cases": "binding", "key": {"[1]": {"molecular_target": "T1, HeLa cell extract proteins (Homo sapiens, UniProt O00408)", "T1 construct": "endogenous in cells; host or cells: HeLa cell extract", "T1 sequence (O00408 whole entry)": "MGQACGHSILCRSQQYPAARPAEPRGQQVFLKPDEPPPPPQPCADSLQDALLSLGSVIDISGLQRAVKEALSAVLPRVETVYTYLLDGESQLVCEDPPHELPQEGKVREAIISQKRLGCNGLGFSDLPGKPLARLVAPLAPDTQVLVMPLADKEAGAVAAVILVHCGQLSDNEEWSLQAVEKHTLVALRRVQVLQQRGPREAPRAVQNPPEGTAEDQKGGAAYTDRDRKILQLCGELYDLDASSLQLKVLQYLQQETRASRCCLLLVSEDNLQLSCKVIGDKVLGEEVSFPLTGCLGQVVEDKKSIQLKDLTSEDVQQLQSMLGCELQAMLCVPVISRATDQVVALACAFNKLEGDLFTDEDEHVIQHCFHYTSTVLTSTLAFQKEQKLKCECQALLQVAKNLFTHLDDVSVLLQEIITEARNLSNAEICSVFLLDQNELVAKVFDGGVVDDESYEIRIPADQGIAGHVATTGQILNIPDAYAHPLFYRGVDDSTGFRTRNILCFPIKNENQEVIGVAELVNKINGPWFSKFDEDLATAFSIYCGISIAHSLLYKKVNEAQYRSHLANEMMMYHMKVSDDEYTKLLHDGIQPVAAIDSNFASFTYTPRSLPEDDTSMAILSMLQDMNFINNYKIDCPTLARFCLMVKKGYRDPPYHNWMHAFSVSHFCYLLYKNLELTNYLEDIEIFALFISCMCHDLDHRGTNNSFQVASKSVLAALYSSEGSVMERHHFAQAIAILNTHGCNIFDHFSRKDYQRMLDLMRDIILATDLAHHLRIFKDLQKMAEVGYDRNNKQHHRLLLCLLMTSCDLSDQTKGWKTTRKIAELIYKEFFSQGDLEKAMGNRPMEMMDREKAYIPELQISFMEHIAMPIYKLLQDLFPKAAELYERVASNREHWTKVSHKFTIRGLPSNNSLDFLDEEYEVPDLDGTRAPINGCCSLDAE", "conditions": "protein PDE2A; HeLa"}, "[2]": {"molecular_target": "T2, HeLa cell extract proteins (Homo sapiens, UniProt O60884)", "T2 construct": "endogenous in cells; host or cells: HeLa cell extract", "T2 sequence (O60884 whole entry)": "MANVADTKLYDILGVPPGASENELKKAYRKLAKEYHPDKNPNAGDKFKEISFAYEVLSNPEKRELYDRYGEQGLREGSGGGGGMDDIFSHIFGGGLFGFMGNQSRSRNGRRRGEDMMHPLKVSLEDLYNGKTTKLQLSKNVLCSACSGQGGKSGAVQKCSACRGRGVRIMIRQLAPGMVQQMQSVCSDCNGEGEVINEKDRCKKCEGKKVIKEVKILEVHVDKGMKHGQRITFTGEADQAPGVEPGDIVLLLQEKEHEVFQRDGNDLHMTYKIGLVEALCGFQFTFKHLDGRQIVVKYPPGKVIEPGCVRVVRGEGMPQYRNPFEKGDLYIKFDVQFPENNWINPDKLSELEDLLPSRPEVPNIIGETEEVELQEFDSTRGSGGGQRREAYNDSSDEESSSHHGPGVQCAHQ", "conditions": "protein DNAJA2; HeLa"}, "[3]": {"molecular_target": "T3, HeLa cell extract proteins (Homo sapiens, UniProt O75947)", "T3 construct": "endogenous in cells; host or cells: HeLa cell extract", "T3 sequence (O75947 whole entry)": "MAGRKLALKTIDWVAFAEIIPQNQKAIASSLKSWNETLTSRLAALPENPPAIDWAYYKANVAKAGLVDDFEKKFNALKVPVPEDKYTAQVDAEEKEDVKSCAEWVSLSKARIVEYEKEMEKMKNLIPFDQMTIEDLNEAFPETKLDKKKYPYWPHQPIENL", "conditions": "HeLa"}, "[4]": {"molecular_target": "T4, HeLa cell extract proteins (Homo sapiens, UniProt P07195)", "T4 construct": "endogenous in cells; host or cells: HeLa cell extract", "T4 sequence (P07195 whole entry)": "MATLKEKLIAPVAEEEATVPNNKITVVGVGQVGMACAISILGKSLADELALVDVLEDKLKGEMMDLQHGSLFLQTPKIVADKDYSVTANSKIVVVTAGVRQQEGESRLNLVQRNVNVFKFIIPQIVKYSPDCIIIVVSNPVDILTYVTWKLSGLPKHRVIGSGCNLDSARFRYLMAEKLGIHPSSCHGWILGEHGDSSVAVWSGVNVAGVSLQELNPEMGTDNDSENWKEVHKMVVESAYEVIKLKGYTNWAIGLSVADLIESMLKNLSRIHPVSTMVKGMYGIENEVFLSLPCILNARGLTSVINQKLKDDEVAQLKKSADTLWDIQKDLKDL", "conditions": "HeLa"}, "[5]": {"molecular_target": "T5, HeLa cell extract proteins (Homo sapiens, UniProt P15104)", "T5 construct": "endogenous in cells; host or cells: HeLa cell extract", "T5 sequence (P15104 whole entry)": "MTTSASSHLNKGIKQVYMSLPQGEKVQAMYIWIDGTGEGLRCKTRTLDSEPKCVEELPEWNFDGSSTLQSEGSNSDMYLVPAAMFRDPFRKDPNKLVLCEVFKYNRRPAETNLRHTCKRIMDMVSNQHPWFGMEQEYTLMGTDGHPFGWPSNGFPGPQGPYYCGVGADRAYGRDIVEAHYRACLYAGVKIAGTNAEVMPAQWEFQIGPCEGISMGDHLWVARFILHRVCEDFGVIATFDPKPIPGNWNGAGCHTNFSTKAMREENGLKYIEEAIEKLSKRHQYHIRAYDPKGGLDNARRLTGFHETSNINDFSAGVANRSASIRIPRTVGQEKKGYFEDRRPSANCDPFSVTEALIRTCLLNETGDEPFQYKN", "conditions": "HeLa"}, "[6]": {"molecular_target": "T6, HeLa cell extract proteins (Homo sapiens, UniProt P37837)", "T6 construct": "endogenous in cells; host or cells: HeLa cell extract", "T6 sequence (P37837 1-337)": "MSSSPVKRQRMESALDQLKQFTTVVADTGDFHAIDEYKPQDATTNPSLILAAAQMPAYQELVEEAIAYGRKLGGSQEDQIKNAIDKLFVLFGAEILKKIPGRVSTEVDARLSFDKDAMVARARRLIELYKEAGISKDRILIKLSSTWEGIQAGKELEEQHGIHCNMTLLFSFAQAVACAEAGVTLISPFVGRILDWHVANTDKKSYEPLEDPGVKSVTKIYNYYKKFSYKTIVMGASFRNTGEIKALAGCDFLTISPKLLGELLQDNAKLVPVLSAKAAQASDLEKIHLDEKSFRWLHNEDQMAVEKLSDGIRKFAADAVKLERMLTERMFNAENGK", "conditions": "HeLa"}, "[7]": {"molecular_target": "T7, HeLa cell extract proteins (Homo sapiens, UniProt P55010)", "T7 construct": "endogenous in cells; host or cells: HeLa cell extract", "T7 sequence (P55010 whole entry)": "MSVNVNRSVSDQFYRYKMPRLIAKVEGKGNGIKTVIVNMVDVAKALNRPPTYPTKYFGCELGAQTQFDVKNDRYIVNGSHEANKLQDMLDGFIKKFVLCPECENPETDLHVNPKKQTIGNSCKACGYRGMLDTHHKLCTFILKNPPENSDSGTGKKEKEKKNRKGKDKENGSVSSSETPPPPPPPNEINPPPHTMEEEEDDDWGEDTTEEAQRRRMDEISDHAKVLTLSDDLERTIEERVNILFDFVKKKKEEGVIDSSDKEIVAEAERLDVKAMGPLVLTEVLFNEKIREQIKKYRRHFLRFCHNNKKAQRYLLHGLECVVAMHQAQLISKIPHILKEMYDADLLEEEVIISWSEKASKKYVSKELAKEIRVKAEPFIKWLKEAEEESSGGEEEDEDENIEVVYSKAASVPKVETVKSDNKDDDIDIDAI", "conditions": "HeLa"}, "[8]": {"molecular_target": "T8, HeLa cell extract proteins (Homo sapiens, UniProt P63208)", "T8 construct": "endogenous in cells; host or cells: HeLa cell extract", "T8 sequence (P63208 whole entry)": "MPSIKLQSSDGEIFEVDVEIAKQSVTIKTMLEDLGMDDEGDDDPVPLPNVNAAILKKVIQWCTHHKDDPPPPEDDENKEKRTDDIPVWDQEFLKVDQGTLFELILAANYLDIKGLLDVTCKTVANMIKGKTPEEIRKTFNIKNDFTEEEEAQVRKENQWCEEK"}, "[9]": {"molecular_target": "T9, HeLa cell extract proteins (Homo sapiens, UniProt Q14247)", "T9 construct": "endogenous in cells; host or cells: HeLa cell extract", "T9 sequence (Q14247 1-550)": "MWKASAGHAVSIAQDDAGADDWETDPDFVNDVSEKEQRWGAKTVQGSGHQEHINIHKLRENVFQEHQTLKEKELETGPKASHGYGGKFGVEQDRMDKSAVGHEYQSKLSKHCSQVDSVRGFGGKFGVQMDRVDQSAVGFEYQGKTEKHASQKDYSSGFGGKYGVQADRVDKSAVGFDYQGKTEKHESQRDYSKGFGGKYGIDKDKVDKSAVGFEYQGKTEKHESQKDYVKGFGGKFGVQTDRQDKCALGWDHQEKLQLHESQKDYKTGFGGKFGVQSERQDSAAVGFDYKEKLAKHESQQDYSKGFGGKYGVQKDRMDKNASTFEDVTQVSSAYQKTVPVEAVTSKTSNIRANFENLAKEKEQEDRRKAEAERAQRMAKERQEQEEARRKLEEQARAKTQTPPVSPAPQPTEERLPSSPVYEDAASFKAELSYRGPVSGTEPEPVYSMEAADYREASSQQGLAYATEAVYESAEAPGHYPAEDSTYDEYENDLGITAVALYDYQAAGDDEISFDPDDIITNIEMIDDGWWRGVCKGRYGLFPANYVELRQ", "conditions": "HeLa"}, "[10]": {"molecular_target": "T10, HeLa cell extract proteins (Homo sapiens, UniProt Q16658)", "T10 construct": "endogenous in cells; host or cells: HeLa cell extract", "conditions": "protein FSCN1; HeLa"}, "[11]": {"molecular_target": "T11, HeLa cell extract proteins (Homo sapiens, UniProt Q3ZCQ8)", "T11 construct": "endogenous in cells; host or cells: HeLa cell extract", "T11 sequence (Q3ZCQ8 45-353)": "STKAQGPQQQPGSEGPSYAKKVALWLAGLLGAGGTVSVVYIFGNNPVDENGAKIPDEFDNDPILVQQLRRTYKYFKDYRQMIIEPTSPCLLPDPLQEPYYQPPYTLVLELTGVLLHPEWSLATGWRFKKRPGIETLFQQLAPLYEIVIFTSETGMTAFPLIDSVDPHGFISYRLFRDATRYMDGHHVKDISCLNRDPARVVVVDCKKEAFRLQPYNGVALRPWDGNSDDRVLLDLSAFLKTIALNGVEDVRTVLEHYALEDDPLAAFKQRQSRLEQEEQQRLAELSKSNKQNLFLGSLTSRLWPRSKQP", "conditions": "HeLa"}, "[12]": {"molecular_target": "T12, HeLa cell extract proteins (Homo sapiens, UniProt Q5T4S7)", "T12 construct": "endogenous in cells; host or cells: HeLa cell extract", "conditions": "protein UBR4; HeLa"}, "[13]": {"molecular_target": "T13, HeLa cell extract proteins (Homo sapiens, UniProt Q9BT22)", "T13 construct": "endogenous in cells; host or cells: HeLa cell extract", "T13 sequence (Q9BT22 1-464)": "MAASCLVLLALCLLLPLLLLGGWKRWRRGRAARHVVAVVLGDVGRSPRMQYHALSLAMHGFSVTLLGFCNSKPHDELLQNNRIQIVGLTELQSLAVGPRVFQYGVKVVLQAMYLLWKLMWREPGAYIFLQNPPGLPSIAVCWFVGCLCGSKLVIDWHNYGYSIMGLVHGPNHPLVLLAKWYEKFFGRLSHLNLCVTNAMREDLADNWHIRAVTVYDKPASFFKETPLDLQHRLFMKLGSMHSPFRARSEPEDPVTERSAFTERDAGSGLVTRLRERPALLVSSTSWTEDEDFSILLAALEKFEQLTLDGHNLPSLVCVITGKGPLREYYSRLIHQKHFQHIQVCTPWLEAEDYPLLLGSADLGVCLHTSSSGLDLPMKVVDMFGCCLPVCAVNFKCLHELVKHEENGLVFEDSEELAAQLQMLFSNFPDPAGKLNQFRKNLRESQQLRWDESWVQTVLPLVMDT", "conditions": "HeLa"}, "[14]": {"molecular_target": "T14, HeLa cell extract proteins (Homo sapiens, UniProt Q9UBM7)", "T14 construct": "endogenous in cells; host or cells: HeLa cell extract", "T14 sequence (Q9UBM7 1-475)": "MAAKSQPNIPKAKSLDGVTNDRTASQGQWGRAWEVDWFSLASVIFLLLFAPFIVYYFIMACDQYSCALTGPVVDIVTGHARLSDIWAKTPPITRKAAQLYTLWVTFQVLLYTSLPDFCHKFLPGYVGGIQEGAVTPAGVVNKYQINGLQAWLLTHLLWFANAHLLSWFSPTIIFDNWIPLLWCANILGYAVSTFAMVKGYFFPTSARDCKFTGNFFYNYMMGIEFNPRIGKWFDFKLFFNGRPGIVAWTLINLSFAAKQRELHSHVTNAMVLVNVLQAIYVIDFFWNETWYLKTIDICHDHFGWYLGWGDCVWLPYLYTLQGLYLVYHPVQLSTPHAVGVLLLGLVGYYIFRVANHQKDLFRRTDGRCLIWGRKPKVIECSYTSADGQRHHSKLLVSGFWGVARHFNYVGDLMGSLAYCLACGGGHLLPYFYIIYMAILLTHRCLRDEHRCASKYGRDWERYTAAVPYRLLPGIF"}, "[15]": {"molecular_target": "T15, HeLa cell extract proteins (Homo sapiens, UniProt Q9UL46)", "T15 construct": "endogenous in cells; host or cells: HeLa cell extract", "T15 sequence (Q9UL46 whole entry)": "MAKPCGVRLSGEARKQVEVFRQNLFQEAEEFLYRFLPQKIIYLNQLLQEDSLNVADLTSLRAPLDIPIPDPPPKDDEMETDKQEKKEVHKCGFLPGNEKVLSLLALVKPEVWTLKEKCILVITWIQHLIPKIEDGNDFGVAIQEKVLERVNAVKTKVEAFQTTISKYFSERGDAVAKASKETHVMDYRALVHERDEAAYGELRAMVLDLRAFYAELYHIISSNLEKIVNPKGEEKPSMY"}, "[16]": {"molecular_target": "T16, HeLa cell extract proteins (Homo sapiens, UniProt Q9Y233)", "T16 construct": "endogenous in cells; host or cells: HeLa cell extract", "T16 sequence (Q9Y233 whole entry)": "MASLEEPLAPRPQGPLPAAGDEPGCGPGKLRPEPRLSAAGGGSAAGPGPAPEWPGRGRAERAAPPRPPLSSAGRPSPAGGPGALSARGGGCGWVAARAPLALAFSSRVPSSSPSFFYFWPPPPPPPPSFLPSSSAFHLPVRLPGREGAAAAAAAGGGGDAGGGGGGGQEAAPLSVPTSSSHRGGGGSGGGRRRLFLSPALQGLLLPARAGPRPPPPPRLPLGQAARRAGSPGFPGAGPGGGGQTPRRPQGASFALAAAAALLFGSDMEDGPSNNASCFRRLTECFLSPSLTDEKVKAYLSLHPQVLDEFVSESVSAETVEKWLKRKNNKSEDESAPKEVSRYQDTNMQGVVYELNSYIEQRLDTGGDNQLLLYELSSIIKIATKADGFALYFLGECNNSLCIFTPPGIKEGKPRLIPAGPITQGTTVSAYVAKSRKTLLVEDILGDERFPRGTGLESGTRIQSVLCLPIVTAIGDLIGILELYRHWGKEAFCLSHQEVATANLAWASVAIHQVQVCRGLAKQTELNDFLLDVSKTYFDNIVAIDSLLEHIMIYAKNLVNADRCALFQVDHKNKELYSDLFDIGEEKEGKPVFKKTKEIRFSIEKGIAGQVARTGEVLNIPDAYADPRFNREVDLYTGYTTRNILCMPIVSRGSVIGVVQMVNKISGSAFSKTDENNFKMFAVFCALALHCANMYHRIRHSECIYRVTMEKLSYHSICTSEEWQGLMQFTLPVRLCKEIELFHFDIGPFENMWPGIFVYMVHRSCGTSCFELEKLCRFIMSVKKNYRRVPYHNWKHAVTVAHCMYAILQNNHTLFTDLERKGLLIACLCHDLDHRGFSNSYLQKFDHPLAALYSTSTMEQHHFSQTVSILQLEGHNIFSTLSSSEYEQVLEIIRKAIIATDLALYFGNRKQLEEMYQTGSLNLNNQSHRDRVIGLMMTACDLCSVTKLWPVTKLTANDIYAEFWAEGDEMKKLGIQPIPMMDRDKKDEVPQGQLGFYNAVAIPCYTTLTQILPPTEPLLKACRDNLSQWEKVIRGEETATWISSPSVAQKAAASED", "conditions": "HeLa"}}, "note": "Read-outs that look alike come from different tables or passages of the source.", "data": [{"smiles": "NCCCNc1ccc(C(=O)NC(CCC(=O)O)C(=O)O)cc1", "note": "(centres unmarked) [compound 7]", "values": [{"measurement": "fold changes relative to vehicle control", "setting": "[1]", "value": 0.7}, {"measurement": "fold changes relative to vehicle control", "setting": "[2]", "value": 0.91}, {"measurement": "fold changes relative to vehicle control", "setting": "[3]; captured protein ATP5H", "value": 0.96}, {"measurement": "fold changes relative to vehicle control", "setting": "[4]; captured protein LDHB", "value": 0.96}, {"measurement": "fold changes relative to vehicle control", "setting": "[5]; protein GLUL", "value": 1.07}, {"measurement": "fold changes relative to vehicle control", "setting": "[6]; protein TALDO1", "value": 0.92}, {"measurement": "fold changes relative to vehicle control", "setting": "[7]; captured protein EIF5", "value": 0.94}, {"measurement": "fold changes relative to vehicle control", "setting": "[8]; HeLa; captured protein SKP1", "value": 1.01}, {"measurement": "fold changes relative to vehicle control", "setting": "[9]; captured protein CTTN", "value": 0.96}, {"measurement": "fold changes relative to vehicle control", "setting": "[10]", "value": 0.78}, {"measurement": "fold changes relative to vehicle control", "setting": "[11]; protein TIMM50", "value": 0.97}, {"measurement": "fold changes relative to vehicle control", "setting": "[12]", "value": 1.02}, {"measurement": "fold changes relative to vehicle control", "setting": "[13]; protein ALG1", "value": 0.99}, {"measurement": "fold changes relative to vehicle control", "setting": "[14]; HeLa; captured protein DHCR7", "value": 0.98}, {"measurement": "fold changes relative to vehicle control", "setting": "[15]; HeLa; protein PSME2", "value": 0.89}, {"measurement": "fold changes relative to vehicle control", "setting": "[16]; protein PDE10A", "value": 1}]}, {"smiles": "CCCCCCOc1cccc(Cc2cnc(N)nc2N)c1", "note": "[compound 2]", "values": [{"measurement": "fold changes relative to vehicle control", "setting": "[1]", "value": 1.7}, {"measurement": "fold changes relative to vehicle control", "setting": "[2]", "value": 1.14}, {"measurement": "fold changes relative to vehicle control", "setting": "[3]; protein ATP5H", "value": 0.88}, {"measurement": "fold changes relative to vehicle control", "setting": "[4]; protein LDHB (L-LACTATE DEHYDROGENASE B CHAIN.)", "value": 2.97, "unit": "fold"}, {"measurement": "fold changes relative to vehicle control", "setting": "[5]; captured protein GLUL", "value": 1.02}, {"measurement": "fold changes relative to vehicle control", "setting": "[6]; protein TALDO1 (TRANSALDOLASE.)", "value": 2.2, "unit": "fold"}, {"measurement": "fold changes relative to vehicle control", "setting": "[7]; protein EIF5 (EUKARYOTIC TRANSLATION INITIATION FACTOR 5.)", "value": 2.16, "unit": "fold"}, {"measurement": "fold changes relative to vehicle control", "setting": "[8]; captured protein SKP1; HeLa", "value": 1.21}, {"measurement": "fold changes relative to vehicle control", "setting": "[9]; protein CTTN", "value": 1.18}, {"measurement": "fold changes relative to vehicle control", "setting": "[10]", "value": 1.96}, {"measurement": "fold changes relative to vehicle control", "setting": "[11]; captured protein TIMM50", "value": 1.04}, {"measurement": "fold changes relative to vehicle control", "setting": "[12]", "value": 1.19}, {"measurement": "fold changes relative to vehicle control", "setting": "[13]; captured protein ALG1", "value": 0.91}, {"measurement": "fold changes relative to vehicle control", "setting": "[14]; captured protein DHCR7; HeLa", "value": 1.03}, {"measurement": "fold changes relative to vehicle control", "setting": "[15]; protein PSME2; HeLa", "value": 1.38}, {"measurement": "fold changes relative to vehicle control", "setting": "[16]; captured protein PDE10A", "value": 0.94}]}]}
